Molecular target: human orexin 2 receptor (Homo sapiens (Human), UniProt O43614)
Assay: Human orexin 2 receptor radioligand binding ([3H]-EMPA competition)
Settings: HEK293 stably expressing human orexin 2 receptor; 2 nM [3H]-EMPA; averages of 2-20 runs; read-out: hOX2 Ki
Method: The in vitro affinity of the compounds of the invention for the rat/human orexin 1 and human orexin 2 receptors was determined by competitive radioligand binding using [^3H](1-(5-(2-fluoro-phenyl)-2-methyl-thiazol-4-yl)-1-((S)-2-(5-phenyl-(1,3,4)oxadiazol-2-ylmethyl)-pyrrolidin-1-yl)-methanone) (Langmead et al., 2004) and [^3H]EMPA (n-ethyl-2[96-methoxy-pyridin-3-yl)-(toluene-2-sulfonyl)-amino]-N-pyridin-3-ylmethyl acetamide), respectively (Langmead et al., 2004, British Journal of Pharmacology 141:340-346; Malherbe et al., 2004, British Journal of Pharmacology 156:1326-41).
Data are analyzed using pc-Sandy macro and graphed on Graphpad Prism 5. For analysis, each concentration point is averaged from triplicate values and the averaged values are plotted on Graphpad Prism. The IC50 was determined by applying the following equation (GraphPad Prism 5.0, San Diego) for one site competition where X=log (concentration) and Y=specific binding. Top denotes the total [^3H]— (1-(5-(2-fluoro-phenyl)-2-methyl-thiazol-4-yl)-1-((S)-2-(5-phenyl-(1,3,4)oxadiazol-2-ylmethyl)-pyrrolidin-1-yl)-methanone) binding, bottom denotes the nonspecific [^3H]— (1-(5-(2-fluoro-phenyl)-2-methyl-thiazol-4-yl)-1-((S)-2-(5-phenyl-(1,3,4)oxadiazol-2-ylmethyl)-pyrrolidin-1-yl)-methanone) binding. Graphpad Prism calculates Ki value from IC50 and the pre-determined Kd values for [^3H]— (1-(5-(2-fluoro-phenyl)-2-methyl-thiazol-4-yl)-1-((S)-2-(5-phenyl-(1,3,4)oxadiazol-2-ylmethyl)-pyrrolidin-1-yl)-methanone) and [^3H]-EMPA. The Ki for each compound is then uploaded into 3DX. Each run comprises individual compounds in triplicate. The data in Table 1 and Table 2 represent averages from between 2-20 runs
Human Orexin 2 Receptor Radioligand Binding Studies
HEK293 stably expressing human orexin 2 receptor (Genebank accession number NM_001526) were grown to confluency in DMEM (Hyclone, cat # SH30022), 10% FBS, 1× Pen/Strep, 1× NaPyruvate, 10 mM HEPES, 600 μg/ml G418 media on 150 cm^2 tissue culture plates, washed with 5 mM EDTA in PBS (HyClone Dulbecco's Phosphate Buffered Saline 1× with Calcium and Magnesium, Cat # SH30264.01, hereafter referred to simply as PBS) and scraped into 50 ml tubes. After centrifugation (2K×G, 5 min at 4° C.), the supernatant was aspirated and the pellets frozen and stored at −80° C. Cells were resuspended in PBS in the presence of 1 tablet of protease inhibitor cocktail (Roche, Cat. #11836145001) per 50 mL. […] Compounds were solubilized in 100% DMSO (Acros Organics, Cat. #61042-1000) and tested over a range of 7 concentration (from 0.1 nM to 10 μM). The final concentration of DMSO in the reactions is equal to or less than 0.1%. Total and nonspecific binding was determined in the absence and presence of 10 μM almorexant. The total volume of each reaction is 200 μL (20 μL of diluted compounds, 80 μL of [^3H]-EMPA diluted in PBS and 100 μL of the cell suspension). Reactions were run for 60 min at room temperature and terminated by filtration through GF/C filter plates (PerkinElmer, Cat. #6005174) presoaked in 0.3% polyethylenimine using the cell harvester (PerkinElmer Filtermate). The plates were washed 3 times by aspirating 30 ml PBS through the plates. Plates were dried in 55° C. oven for 60 min, scintillation fluid was added, and the radioactivity was counted on a Topcount (Packard).

human orexin 2 receptor, sequence (O43614 whole entry): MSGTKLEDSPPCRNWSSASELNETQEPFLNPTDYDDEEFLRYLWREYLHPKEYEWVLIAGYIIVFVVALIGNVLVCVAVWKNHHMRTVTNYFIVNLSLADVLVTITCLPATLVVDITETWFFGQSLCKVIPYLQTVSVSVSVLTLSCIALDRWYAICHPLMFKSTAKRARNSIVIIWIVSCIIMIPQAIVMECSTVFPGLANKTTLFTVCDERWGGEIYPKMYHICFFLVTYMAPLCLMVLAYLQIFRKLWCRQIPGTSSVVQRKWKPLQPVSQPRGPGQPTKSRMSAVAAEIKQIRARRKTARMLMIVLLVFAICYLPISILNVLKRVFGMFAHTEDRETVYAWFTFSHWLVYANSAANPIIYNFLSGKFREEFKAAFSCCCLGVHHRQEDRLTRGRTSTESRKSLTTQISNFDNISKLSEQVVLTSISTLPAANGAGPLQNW

| Structure (SMILES) | Ki [nM] |
| --- | --- |
| CC1C2CC(Nc3cnc(C(F)(F)F)cn3)C(C2)N1C(=O)c1ccccc1-n1nccn1 (racemic) [Example 5, (R/S)-(2-(2H-1,2,3-triazol-2-yl)phenyl)(3-methyl-6-((5-(trifluoromethyl)pyrazin-2-yl)amino)-2-azabicyclo[2.2.1]heptan-2-yl)methanone] | 278 |
| Cc1cnc(C(=O)N2C(C)C3CC(Oc4ccc(C(F)(F)F)cn4)C2C3)c(-n2nccn2)c1 (racemic) [Example 11, (R/S)-(5-methyl-3-(2H-1,2,3-triazol-2-yl)pyridin-2-yl)(3-methyl-6-((5-(trifluoromethyl)pyridin-2-yl)oxy)-2-azabicyclo[2.2.1]heptan-2-yl)methanone] | 2100 |
| CCOc1ccc(C)nc1C(=O)N1C(C)C2CC(Oc3ccc(C(F)(F)F)cn3)C1C2 (racemic) [Example 13, (R/S)-(3-ethoxy-6-methylpyridin-2-yl)(3-methyl-6-((5-(trifluoromethyl)pyridin-2-yl)oxy)-2-azabicyclo[2.2.1]heptan-2-yl)methanone] | 1600 |
| CC1C2CC(Oc3ccc(C(F)(F)F)cn3)C(C2)N1C(=O)c1cc(F)ccc1-c1ncccn1 (racemic) [Example 18, (R/S)-(5-fluoro-2-(pyrimidin-2-yl)phenyl)(−3-methyl-6-((5-(trifluoromethyl)pyridin-2-yl)oxy)-2-azabicyclo[2.2.1]heptan-2-yl)methanone] | 1600 |
| CC1C2CC(Oc3ccc(C(F)(F)F)cn3)C(C2)N1C(=O)c1cccc(F)c1-c1ncc(F)cn1 (racemic) [Example 20, (R/S)-(3-fluoro-2-(5-fluoropyrimidin-2-yl)phenyl)(3-methyl-6-((5-(trifluoromethyl)pyridin-2-yl)oxy)-2-azabicyclo[2.2.1]heptan-2-yl)methanone] | 3100 |
| CC1C2CC(Nc3cnc(C(F)(F)F)cn3)C(C2)N1C(=O)c1ccccc1-n1nccn1 (racemic) [Example 68, (R/S)-(2-(2H-1,2,3-triazol-2-yl)phenyl)(3-methyl-6-((5-(trifluoromethyl)pyrazin-2-yl)amino)-2-azabicyclo[2.2.1]heptan-2-yl)methanone] | 625 |
| O=C(c1ccccc1-n1nccn1)N1C(CF)C2CC(Oc3ccc(C(F)(F)F)cn3)C1C2 (racemic) [Example 73, (R/S)-(2-(2H-1,2,3-triazol-2-yl)phenyl)(3-(fluoromethyl)-6-((5-(trifluoromethyl)pyridin-2-yl)oxy)-2-azabicyclo[2.2.1]heptan-2-yl)methanone] | 2000 |
| CC(C)CC1C2CC(Oc3ccc(C(F)(F)F)cn3)C(C2)N1C(=O)c1cccc(F)c1-c1ncccn1 (racemic) [Example 211, (R/S)-(3-fluoro-2-pyrimidin-2-yl-phenyl)-[2-isobutyl-5-[[5-(trifluoromethyl)-2-pyridyl]oxy]-3-azabicyclo[2.2.1]heptan-3-yl]methanone] | 3300 |
| C[C@@H]1[C@H]2C[C@@H](Oc3ccc(C(F)(F)F)cn3)[C@H](C2)N1C(=O)c1ncccc1-n1nccn1 (relative stereo) [Example 23, (3-(2H-1,2,3-triazol-2-yl)pyridin-2-yl)((1S*,3R*,4R*,6R*)-3-methyl-6-((5-(trifluoromethyl)pyridin-2-yl)oxy)-2-azabicyclo[2.2.1]heptan-2-yl)methanone] | 2400 |
| C[C@@H]1[C@H]2C[C@@H](Oc3ccc(C(F)(F)F)cn3)[C@H](C2)N1C(=O)c1c(F)cccc1-n1nccn1 (relative stereo) [Example 30, (2-fluoro-6-(2H-1,2,3-triazol-2-yl)phenyl)((1S*,3R*,4R*,6R*)-3-methyl-6-((5-(trifluoromethyl)pyridin-2-yl)oxy)-2-azabicyclo[2.2.1]heptan-2-yl)methanone] | 689 |
| Cc1cnc(C(=O)N2[C@H](C)[C@H]3C[C@@H](Oc4cnc(C(F)(F)F)cn4)[C@@H]2C3)c(-n2nccn2)c1 (relative stereo) [Example 48, (5-methyl-3-(2H-1,2,3-triazol-2-yl)pyridin-2-yl)((1S*,3R*,4R*,6R*)-3-methyl-6-((5-(trifluoromethyl)pyrazin-2-yl)oxy)-2-azabicyclo[2.2.1]heptan-2-yl)methanone] | > 10000 |
| CCOc1ccc(C)nc1C(=O)N1[C@H](C)[C@H]2C[C@@H](Oc3cnc(C(F)(F)F)cn3)[C@@H]1C2 (relative stereo) [Example 56, (3-ethoxy-6-methylpyridin-2-yl)((1S*,3R*,4R*,6R*)-3-methyl-6-((5-(trifluoromethyl)pyrazin-2-yl)oxy)-2-azabicyclo[2.2.1]heptan-2-yl)methanone] | 7000 |

Now from value to compound:

| Ki [nM] | Structure (SMILES) |
| --- | --- |
| 3700 | CC1C2CC(Oc3ccc(C(F)(F)F)cn3)C(C2)N1C(=O)c1ncccc1-n1nccn1 (racemic) [Example 9, (R/S)-(3-(2H-1,2,3-triazol-2-yl)pyridin-2-yl)(3-methyl-6-((5-(trifluoromethyl)pyridin-2-yl)oxy)-2-azabicyclo[2.2.1]heptan-2-yl)methanone] |
| 585 | Cc1cnc(C(=O)N2C(C)C3CC(Nc4ccc(C(F)(F)F)cn4)C2C3)c(-n2nccn2)c1 (racemic) [Example 61, (R/S)-(5-methyl-3-(2H-1,2,3-triazol-2-yl)pyridin-2-yl)(3-methyl-6-((5-(trifluoromethyl)pyridin-2-yl)amino)-2-azabicyclo[2.2.1]heptan-2-yl)methanone] |
| 2000 | Cc1ccc(-n2nccn2)c(C(=O)N2C(CF)C3CC(Oc4ccc(C(F)(F)F)cn4)C2C3)n1 (racemic) [Example 70] |
| > 10000 | Cc1cnc(-n2nccn2)c(C(=O)N2C(CF)C3CC(Oc4ccc(C(F)(F)F)cn4)C2C3)c1 (racemic) [Example 72] |
| 1500 | Cc1ccc(-n2nccn2)c(C(=O)N2C(CC(C)C)C3CC(Oc4ccc(C(F)(F)F)cn4)C2C3)n1 (racemic) [Example 210, (R/S)-[2-isobutyl-5-[[5-(trifluoromethyl)-2-pyridyl]oxy]-3-azabicyclo[2.2.1]heptan-3-yl]-[6-methyl-3-(triazol-2-yl)-2-pyridyl]methanone] |
| 316 | CCC1C2CC(Oc3ccc(C(F)(F)F)cn3)C(C2)N1C(=O)c1ccccc1-c1ncccn1 (racemic) [Example 214, (R/S)-[2-ethyl-5-[[5-(trifluoromethyl)-2-pyridyl]oxy]-3-azabicyclo[2.2.1]heptan-3-yl]-(2-pyrimidin-2-ylphenyl)methanone] |
| 602 | C[C@@H]1[C@H]2C[C@@H](Oc3ccc(C(F)(F)F)cn3)[C@H](C2)N1C(=O)c1ccccc1-c1ncccn1 (relative stereo) [Example 33, ((1S*,3R*,4R*,6R*)-3-methyl-6-((5-(trifluoromethyl)pyridin-2-yl)oxy)-2-azabicyclo[2.2.1]heptan-2-yl)(2-(pyrimidin-2-yl)phenyl)methanone] |
| > 10000 | Cc1ccc(C(=O)N2[C@H](C)[C@H]3C[C@@H](Oc4cnc(C(F)(F)F)cn4)[C@@H]2C3)c(-n2nccn2)n1 (relative stereo) [Example 49, (6-methyl-2-(2H-1,2,3-triazol-2-yl)pyridin-3-yl)((1S*,3R*,4R*,6R*)-3-methyl-6-((5-(trifluoromethyl)pyrazin-2-yl)oxy)-2-azabicyclo[2.2.1]heptan-2-yl)methanone] |
| 7600 | C[C@@H]1[C@H]2C[C@@H](Oc3cnc(C(F)(F)F)cn3)[C@H](C2)N1C(=O)c1ccc(F)cc1-n1nccn1 (relative stereo) [Example 53, (4-fluoro-2-(2H-1,2,3-triazol-2-yl)phenyl)((1S*,3R*,4R*,6R*)-3-methyl-6-((5-(trifluoromethyl)pyrazin-2-yl)oxy)-2-azabicyclo[2.2.1]heptan-2-yl)methanone] |
